One assay concerns Bacillus subtilis. Nature of the assay: Antibacterial activity against Bacillus subtilis ATCC 6633 after 16 hrs. The assay is classed as functional. The following applies: ATCC 6633, 16 h.
In the next assay the test system is Staphylococcus aureus. Nature of the assay: Antibacterial activity against Staphylococcus aureus ATCC 6538 after 16 hrs. The assay is classed as functional. Conditions: ATCC 6538, 16 h.

For two compounds, MIC results are on record in ChEMBL document CHEMBL1150953, “Novel betaines from the marine sponge Agelas dispar” (1998).

Converted amounts (≈) assume the structure as drawn.

For the compound `Cn1c(CC(=O)[O-])c[n+](C)c1N` [AMINOZOOANEMONIN], the MIC against Bacillus subtilis was 2.5 µg/mL (≈ 14.8 µM); against Staphylococcus aureus it was 8.5 µg/mL (≈ 50.2 µM).

In the case of `O=C([O-])c1ccc[n+](CCO)c1` [PYRIDINEBETAINE A], the MIC against Bacillus subtilis was 3.5 µg/mL (≈ 20.9 µM); against Staphylococcus aureus, 5 µg/mL (≈ 29.9 µM).

What is called MIC is the lowest concentration that inhibits growth of the organism.
